What was measured:
NLRP3 [1] = molecular target: T1, NLRP3 (Homo sapiens, UniProt Q96P20); test: THP-1 cells pyroptosis assay; assay type: cell-based; set-up: Seed THP-1 cells (25,000 cells/well) containing 1.0 μg/ml LPS; host or cells: THP-1; details: LPS 1.0 μg/ml, nigericin 5 μM, resazurin readout, 10 μM top dose (Example 2: top dose of 30 μM)
In short: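 THP-1 cells (25,000/well) primed with 1 μg/ml LPS in serum-free RPMI, treated with compound (8-point dilution, 10 μM top unless stated; 0.1% DMSO) 3 h at 37°C, then nigericin 5 μM 1 h. Viability read by resazurin (100 μM, 1-2 h) fluorescence; IC50 from 4-parameter fit.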

[2] = PK, intravenous administration; assay type: in vivo; details: rat, plasma, male Sprague Dawley rats, dose about 1 mg/kg; for Vd: read-out: Vdss
Description: Pharmacokinetic parameters were determined in male Sprague Dawley rats (Vital River Laboratory Animal Technology Co Ltd, Beijing, China, 6-9 weeks old). Animals were maintained under a 12 h light/dark cycle. Animals had free access to food and water, except that orally dosed animals were food deprived overnight prior to the study.
For intravenous administration, compounds were formulated as a solution (in DMSO:water [10:90] or in DMSO:PBS [10:90]) in 2 mL/kg dosing volume and administered via tail vein. For oral administration, compounds were formulated as a solution (in 0.5% methylcellulose in water) in […] dosing volume and administered orally.
Serial blood samples (about 200 μL) were taken from each animal at each of 8 time-points post dose ([…], 0.25, 0.5, 1, 2, 4, 8 and 24 h). Samples were held on ice for no longer than 30 minutes before centrifugation (5,696 rpm (3,000 g) for 15 minutes) for plasma generation. Plasma was frozen on dry ice prior to bioanalysis. PK parameters were generated from LC-MS/MS data using Phoenix WinNonlin 6.3 software.

NLRP3 [3] = molecular target: T1, NLRP3; test: Human whole blood IL1β release assay; assay type: cell-based; details: LPS 1 μg/ml, nigericin 10 μM, IL-1β AlphaLisa, 10 μM top dose (Example 2: top dose of 30 μM), read-out: HWB IC50
In short: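 Healthy-donor heparinised human whole blood with 1 μg/ml LPS, compound (8-point half-log dilution, 10 μM top dose unless stated; 0.1% DMSO vehicle) for 3 h at 37 °C, then nigericin 10 μM final for 1 h. Supernatant IL-1β by AlphaLISA; IC50 from 4-parameter variable-slope fit.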

T1 sequence (Q96P20 whole entry): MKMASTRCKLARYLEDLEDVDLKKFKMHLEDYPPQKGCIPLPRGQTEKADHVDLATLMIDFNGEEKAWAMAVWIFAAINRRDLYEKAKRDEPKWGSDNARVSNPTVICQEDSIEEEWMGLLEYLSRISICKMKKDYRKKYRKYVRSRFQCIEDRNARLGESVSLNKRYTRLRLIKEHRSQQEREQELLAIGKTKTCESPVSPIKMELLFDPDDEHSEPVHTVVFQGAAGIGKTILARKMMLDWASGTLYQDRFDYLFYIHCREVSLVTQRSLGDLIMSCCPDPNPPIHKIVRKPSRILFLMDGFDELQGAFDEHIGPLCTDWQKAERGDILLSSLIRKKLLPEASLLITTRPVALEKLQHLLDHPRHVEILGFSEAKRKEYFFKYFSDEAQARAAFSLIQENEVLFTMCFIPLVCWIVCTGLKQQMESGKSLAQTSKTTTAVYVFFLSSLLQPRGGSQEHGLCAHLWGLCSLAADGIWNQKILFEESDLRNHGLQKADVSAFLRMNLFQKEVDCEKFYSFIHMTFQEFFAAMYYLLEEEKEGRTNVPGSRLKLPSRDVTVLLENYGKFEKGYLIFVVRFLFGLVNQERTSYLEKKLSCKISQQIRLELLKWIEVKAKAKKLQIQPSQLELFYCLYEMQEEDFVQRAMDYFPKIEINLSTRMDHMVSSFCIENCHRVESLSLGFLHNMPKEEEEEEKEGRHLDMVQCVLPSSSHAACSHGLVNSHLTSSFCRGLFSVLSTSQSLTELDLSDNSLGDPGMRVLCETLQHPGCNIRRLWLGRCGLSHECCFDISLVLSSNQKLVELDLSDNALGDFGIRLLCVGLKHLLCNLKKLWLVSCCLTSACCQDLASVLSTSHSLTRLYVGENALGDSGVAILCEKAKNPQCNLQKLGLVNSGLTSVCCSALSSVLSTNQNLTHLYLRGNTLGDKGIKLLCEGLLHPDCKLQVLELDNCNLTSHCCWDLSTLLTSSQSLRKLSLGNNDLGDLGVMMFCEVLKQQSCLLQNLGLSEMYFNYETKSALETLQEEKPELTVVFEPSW

SMILES | IC50 (NLRP3 [1]) [nM] | AUC [2] [ng·h/mL] | clearance [2] [mL/min/kg] | half-life [2] [h] | Vd [2] [L/kg] | IC50 (NLRP3 [3]) [nM]
CN(C)CCCS(=O)(=O)c1nnc(Nc2c3c(cc4c2CCC4)CCC3)[nH]1 [Example 48, 5-((3-(Dimethylamino)propyl)sulfonyl)-N-(1,2,3,5,6,7-hexahydro-s-indacen-4-yl)-4H-1,2,4-triazol-3-amine] | ≤ 500 | 196 | 85 | 0.8 | 3.69 | ≤ 500
O=S(=O)(CCCN1CCCC1)c1nnc(Nc2c3c(cc4c2CCC4)CCC3)[nH]1 [Example 49, N-(1,2,3,5,6,7-hexahydro-s-indacen-4-yl)-5-((3-(pyrrolidin-1-yl)propyl)sulfonyl)-4H-1,2,4-triazol-3-amine] | ≤ 500 | 168 | 98.9 | 2.1 | 8.08 | ≤ 1000
CNCCCS(=O)(=O)c1nnc(Nc2c3c(cc4c2CCC4)CCC3)[nH]1 [Example 54, N-(1,2,3,5,6,7-hexahydro-s-indacen-4-yl)-5-((3-(methylamino)propyl)sulfonyl)-4H-1,2,4-triazol-3-amine] | ≤ 1000 | 273 | 61.1 | 1.3 | 2.7 | ≤ 10000
CN1CCCC1CCS(=O)(=O)c1nnc(Nc2c3c(cc4c2CCC4)CCC3)[nH]1 (stereo not drawn) [Example 60, N-(1,2,3,5,6,7-hexahydro-s-indacen-4-yl)-3-((2-(1-methylpyrrolidin-2-yl)ethyl)sulfonyl)-1H-1,2,4-triazol-5-amine] | ≤ 1000 | 278 | 60 | 1 | 3.24 | ≤ 5000
COc1cc(-c2cc(F)cc(C(C)C)c2Oc2nnc(S(=O)(=O)N3CCC(CN(C)C)C3)[nH]2)ccn1 (stereo not drawn) [Example 69, 1-(1-((5-(4-fluoro-2-isopropyl-6-(2-methoxypyridin-4-yl)phenoxy)-4H-1,2,4-triazol-3-yl)sulfonyl)pyrrolidin-3-yl)-N,N-dimethylmethanamine] | ≤ 1000 | 267 | 65.5 | 0.71 | 1.29 | ≤ 1000
CS(=O)(=O)c1nnc(Nc2c3c(cc4c2CCC4)CCC3)[nH]1 [Example 75, N-(1,2,3,5,6,7-hexahydro-s-indacen-4-yl)-5-(methylsulfonyl)-4H-1,2,4-triazol-3-amine] | ≤ 5000 | 1000 | 16.7 | 0.5 | 0.56 | ≤ 10000
CCN(CC)CCCS(=O)(=O)c1nnc(Nc2c(-c3ccnc(OC)c3)ccc3c2CCC3)[nH]1 [Example 76, 5-((3-(diethylamino)propyl)sulfonyl)-N-(5-(2-methoxypyridin-4-yl)-2,3-dihydro-1H-inden-4-yl)-4H-1,2,4-triazol-3-amine] | ≤ 500 | 210 | 79.4 | 0.9 | 2.48 | ≤ 5000
CCN(CC)CCCS(=O)(=O)c1nnc(Nc2c(-c3ccnc(OC)c3)cc(F)cc2C(C)C)[nH]1 [Example 79, 5-((3-(diethylamino)propyl)sulfonyl)-N-(4-fluoro-2-isopropyl-6-(2-methoxypyridin-4-yl)phenyl)-4H-1,2,4-triazol-3-amine] | ≤ 500 | 277 | 60 | 2.57 | 5.03 | ≤ 5000
CCN(CC)CCNS(=O)(=O)c1nnc(Nc2c3c(cc4c2CCC4)CCC3)[nH]1 [Example 81, N-(2-(diethylamino)ethyl)-5-((1,2,3,5,6,7-hexahydro-s-indacen-4-yl)amino)-4H-1,2,4-triazole-3-sulfonamide] | ≤ 500 | 278 | 59.9 | 1.5 | 4.61 | ≤ 1000

Reference: US20210261512A1, “NOVEL COMPOUNDS” (INFLAZOME LIMITED, priority 2018, published 2021)
